Test results published in paper PMC9245008 (ACS chemical biology, 2022).
pIC50: −log10 of the molar value.

Key:
TAK1 = target: T1, TAK1 (Homo sapiens, UniProt O43318); experiment: Potency of takinib analogues against TAK1; assay type: biochemical
T1 sequence (O43318 1-303 limits assumed): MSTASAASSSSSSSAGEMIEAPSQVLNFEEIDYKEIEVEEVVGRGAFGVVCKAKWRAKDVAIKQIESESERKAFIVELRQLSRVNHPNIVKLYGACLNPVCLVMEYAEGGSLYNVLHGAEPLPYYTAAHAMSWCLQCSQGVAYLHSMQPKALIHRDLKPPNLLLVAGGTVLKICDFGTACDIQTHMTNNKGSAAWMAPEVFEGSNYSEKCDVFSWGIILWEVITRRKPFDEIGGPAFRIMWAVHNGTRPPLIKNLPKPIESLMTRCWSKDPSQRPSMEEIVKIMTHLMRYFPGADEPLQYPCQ

IRAK4 [1] = target: T2, IRAK4 (Homo sapiens, UniProt Q9NWZ3); experiment: Potency of takinib analogues against IRAK4; assay type: biochemical; conditions: IRAK4 IC50 over TAK1 IC50
T2 sequence (Q9NWZ3 1-460): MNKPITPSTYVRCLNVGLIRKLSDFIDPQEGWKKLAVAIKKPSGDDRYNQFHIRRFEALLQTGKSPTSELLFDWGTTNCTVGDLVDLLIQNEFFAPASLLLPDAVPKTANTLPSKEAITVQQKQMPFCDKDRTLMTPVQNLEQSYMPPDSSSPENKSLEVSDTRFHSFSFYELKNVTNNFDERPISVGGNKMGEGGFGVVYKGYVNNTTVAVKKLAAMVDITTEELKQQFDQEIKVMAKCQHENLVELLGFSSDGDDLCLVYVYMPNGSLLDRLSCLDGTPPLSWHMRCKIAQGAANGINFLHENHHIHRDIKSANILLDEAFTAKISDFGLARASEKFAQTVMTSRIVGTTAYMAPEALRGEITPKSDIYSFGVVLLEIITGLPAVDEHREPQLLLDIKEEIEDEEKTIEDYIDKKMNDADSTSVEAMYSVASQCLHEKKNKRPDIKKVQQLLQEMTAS

IRAK4 [2] = target: T2, IRAK4; conditions: cited from earlier work
CIA mouse model = conditions: 50 mg/kg IP; cited from earlier work

- pIC50 (TAK1): 8.05
- Ratio (IRAK4 [1]): 13
Structure (SMILES): CCCn1c(=NC(=O)c2cccc(C(N)=O)c2)[nH]c2ccccc21 [Takinib, N-(1-propyl-1,3-dihydro-2H-benzo[d]imidazol-2-ylidene)isophthalamide]
- IRAK4 less potently inhibited than TAK1 (IRAK4 [2]): 13 fold
- pIC50 (IRAK4 [2]; read-out: IRAK4 IC50, two independent kinome wide screens): ~6.92
- reduction of mean clinical score (CIA mouse model): ~ 32%
